One series in a line: in vivo. The note with it: mouse, plasma.
The next series concerns HT29 cells. Kind of series: In vitro cytotoxicity on HT29 cells. It counts as cell-based. The note with it: Homo sapiens.
Series [1] can be described thus: Oral MTTD (tolerance) study on xenografted mice. The class given is in vivo. The note with it: for Clinical symptoms: po, J = 1 to 5, mice with s.c. HT-29 tumor. The procedure: A tolerance and efficacy study on xenografted mice, in order to mimic as close as possible the in vivo model of colonic tumor, was carried out. As xenografted mice are very sensitive, the MTTD and efficacy study was done on mice with a subcutaneously implanted HT-29 colorectal human tumor cells.

Series [2] in a line: Tolerance study (Step 1), relative body weight. It counts as in vivo, nude mice. The note with it: oral IRN alone group (100 mg/kg po qd×5). The procedure: When subcutaneous HT29 xenografts are detectable and reach a mean tumor volume of 150 mm3, groups of mice are randomly affected to the treatments. Mice without tumors were eliminated.
Mice in the control group received vehicle under a 750 μl volume.
Toxicity of the different treatments are determined as: body weight loss percent (% BWL max)=100−(mean BWx/mean BW1x 100), where BWx is the mean BW at the day of maximal loss during the treatment and BW1 is the mean BW on the 1st day of treatment.
All animals are weighted during the whole treatment period, in order to adjust the volume of drug administration and to calculate the percent body weight loss due to the different treatments.

Series [3] in a line: MTTD study, one administration per week during three weeks. The class given is in vivo, mice. The note with it: J = 0, 7, 14. The procedure:
The schedule of the MTTD studies was one administration per week during three weeks. Each dose was tested on a group of 3 animals and the animals were monitored for 2 weeks after the end of the last treatment, clinical toxicity signs were observed and the animals weight taken every two days.

The conditions of series [4]: free drug; cited from earlier work.
The nature of the next series: physchem. The note with it: phosphate buffer (control for the cyclodextrin mixtures), aqueous buffer.

What is called AUC is concentration integrated over time. A higher AUC goes with high exposure. A word on the bioavailability: it is dose-corrected exposure relative to a reference, in per cent. In general, Cmax refers to the highest concentration seen after dosing. Broadly, the Tmax is the time at which the peak concentration occurs. In general, solubility refers to the dissolved amount per volume that the medium holds.

The structures appear in SMILES notation. Converted amounts (≈) assume the structure as drawn. Where two headings read alike, the source gives them in different places.

Experimental for in vivo: Three mice were used per time-point. Only one sampling was performed on the control group.

As to `CCc1c2c(nc3ccc(OC(=O)N4CCC(N5CCCCC5)CC4)cc13)-c1cc3c(c(=O)n1C2)COC(=O)[C@]3(O)CC` [IRN, Irinotecan], the AUC in “in vivo” (iv, 20 mg/kg) is 1280 ng·h/mL; in the series “in vivo” (po, 100 mg/kg), 1740 ng·h/mL. The compound also gave a bioavailability in the series “in vivo” (oral, 100 mg/Kg) of 27.1%. Besides, the Cmax in “in vivo” (po, 100 mg/kg) is 477 ng/mL. The Tmax in “in vivo” (po, 100 mg/kg) stood at 2.06 h. The IC50 turned out to be 0.75 µg/mL (≈ 1.28 µM) in the series on HT29 cells (HT-29, 96 h, read-out: IC50 [IRN], experiment GF411, HT29 cells, 4 days contact, as IRN concentration); 0.8 µg/mL (≈ 1.36 µM) in the series with HT29 cells (HT-29, 96 h, read-out: IC50 [IRN], experiment GF464, HT29 cells, 4 days contact, as IRN concentration); 0.85 µg/mL (≈ 1.45 µM) in the series with HT29 cells (HT-29, 96 h, read-out: IC50 [IRN], experiment GF522, HT29 cells, 4 days contact, as IRN concentration); 0.8 µg/mL (≈ 1.36 µM) with HT29 cells (HT-29, read-out: Mean IC 50 [IRN], mean of three experiments, HT29 cells, as IRN concentration). In addition, in series [1] (orally every day for 5 days, xenografted mice), the “toxicity / tolerance” value was “induced an important weight loss”. In addition, the Clinical symptoms result in series [1] (100 mg/kg BW) is on record as “Weight loss, but mice”; in series [1] (200 mg/kg BW), “Important weight loss”; in series [3] (iv, 25 mg/kg BW), “No clinical sign”; in series [3] (po, 200 mg/kg BW) it was “No clinical sign”. The body weight loss result in series [2] is “more than 15%”.

With `COc1cccc2c1C(=O)c1c(O)c3c(c(O)c1C2=O)C[C@@](O)(C(=O)CO)C[C@@H]3O[C@H]1C[C@H](N)[C@H](O)[C@H](C)O1` [doxorubicin, Doxorubicin], the “oral bioavailability compare to i. v. bioavailability” value in series [4] is “about 5%”.

As to `CC(=O)O[C@@]12CO[C@@H]1C[C@H](O)[C@@]1(C)C(=O)[C@H](O)C3=C(C)[C@@H](OC(=O)[C@H](O)[C@@H](NC(=O)OC(C)(C)C)c4ccccc4)C[C@@](O)([C@@H](OC(=O)c4ccccc4)[C@H]21)C3(C)C` [docetaxel], the solubility in “physchem” worked out at 1.9 ± 0.1 µg/mL (≈ 2.35 µM).

The values above are taken from patent US20110207685A1, “Oral Formulations of Chemotherapeutic Agents” (priority 2008, published 2011).
